Source: patent publication US10398751B2, “Pharmaceutical compositions of water soluble peptides with poor solubility in isotonic conditions and methods for their use” (STRONGBRIDGE IRELAND LIMITED, priority 2016, dated 2019)
Counter-ions that a name gives are not always drawn.

Legend:
[1] = Solubility in Tris-HCl and lysine solutions; type: physicochemical
Procedure: In light of the solubility of veldoreotide acetate in Tris-HCl, the solubility of veldoreotide acetate was tested in solutions containing L-lysine and L-lysine HCl.

[2] = Solubility screening of veldoreotide acetate (10 mg, incremental volumes of medium, USP definition); type: physicochemical
From the text: The solubility of veldoreotide acetate in aqueous media was screened by the following method. A fixed amount of 10 milligrams of the peptide was weighed and dissolved at ambient temperature by increased (incremental) volumes of the tested medium until a complete solubility was observed, i.e, clear/transparent solution and absence of any precipitates (the solubility endpoint values were defined according to USP guidance). Following the results of the screening studies, several media were selected for verification studies based on quantitative assessment of the peptide concentration by HPLC (maximal solubility). The results of the screening study are depicted in Table 1 while the results of the verification studies are included in Table 2.

In the case of `C[C@@H](O)[C@@H]1NC(=O)[C@H](CCCCN)NC(=O)[C@@H](Cc2c[nH]c3ccccc23)NC(=O)[C@H](Cc2c[nH]c3ccccc23)NC(=O)[C@H](Cc2ccccc2)NC(=O)CCCNC(=O)CCCN(CC(N)=O)C(=O)[C@H](Cc2ccccc2)NC1=O` [Veldoreotide Acetate, Cyclo(-γ-aminobutyryl-L-phenylalanyl-L-tryptophanyl-D-tryptophanyl-L-lysyl-L-threonyl-L-phenylalanyl-N-carbamoylmethyl-γ-aminobutyryl), acetate salt], the solubility ([1]; 20 mM Tris-HCl) is reported as “highly soluble”, the solubility ([1]; Tris-HCl increased to 137 mM or 117 mM NaCl added) is reported as “significantly reduced” and the “effect on solubility of veldoreotide acetate” value ([1]; addition of L-lysine HCl, isotonic media) is reported as “substantially improved”. For the same molecule, the “effect on solubility of veldoreotide acetate” value ([1]; solution containing L-lysine) was “did not substantially improve”, the “Results USP Definition” value ([2]; 10 mg in 0.1% TFA) was “Freely soluble” and the “Results USP Definition” value ([2]; 10 mg in 0.1N HCL, acetate salt) was “Soluble”. For the same molecule, the “Results USP Definition” value ([2]; 10 mg in 0.1N HCL, listed as veldoreotide acetate, acetate salt) was “soluble”, the “Results USP Definition” value ([2]; 10 mg in 0.9N HCL, acetate salt) was “Insoluble” and the “Results USP Definition” value ([2]; 10 mg in 0.9N HCL, listed as veldoreotide acetate, acetate salt) was “insoluble”. The “Results USP Definition” value ([2]; 10 mg in 2% Propylene glycol in olive oil (or cottonseed oil)) was “Sparingly”, the “Results USP Definition” value ([2]; 10 mg in 10% EtOH (95%) in olive oil (or cottonseed oil)) was “Sparingly” and the “Results USP Definition” value ([2]; 10 mg in Acetate saline 100 mM, Mannitol 250 mM (pH 4.3)) was “Slightly soluble”. The “Results USP Definition” value ([2]; 10 mg in Acetic acid 1% (glacial)) was “Freely soluble”, the “Results USP Definition” value ([2]; 10 mg in Acetone (USP)) was “Freely soluble” and the “Results USP Definition” value ([2]; 10 mg in Caprylic acid) was “Soluble”. For the same molecule, the “Results USP Definition” value ([2]; 10 mg in DDW (Double distilled water)) was “Freely soluble”, the “Results USP Definition” value ([2]; 10 mg in Dextrose 5% (USP)) was “Freely soluble” and the “Results USP Definition” value ([2]; 10 mg in Ethanol (USP)) was “Freely soluble”. The “Results USP Definition” value ([2]; 10 mg in Glycerol) was “Soluble”, the “Results USP Definition” value ([2]; 10 mg in Lactic acid 37 mM, Mannitol 250 mM (pH 4.3)) was “Freely soluble” and the “Results USP Definition” value ([2]; 10 mg in Oleic acid) was “Very slightly”. For the same molecule, the “Results USP Definition” value ([2]; 10 mg in PBS pH 7.2) was “Very slightly”, the “Results USP Definition” value ([2]; 10 mg in Propylene glycol) was “Freely soluble” and the “Results USP Definition” value ([2]; 10 mg in Refined vegetable oils, Olive, Cotton, Coconut, Canola) was “Insoluble”. The “Results USP Definition” value ([2]; 10 mg in Saline (USP) (0.9% NaCl) pH 4.5) was “Very slightly”, the “Results USP Definition” value ([2]; 10 mg in WFI-USP (water for injection)) was “Soluble” and the solubility ([2]; 0.1% TFA, 10 mg in 0.1% TFA, read-out: 0.01 ml Very soluble (1 g/ml)) was under 1000 mg/mL. It also gave a solubility ([2]; 0.1% TFA, 10 mg in 0.1% TFA, read-out: 0.5 ml Soluble (0.02 g/ml; 20 mg/ml)) of over 20 mg/mL, a solubility ([2]; 0.1% TFA, 10 mg in 0.1% TFA, read-out: 1 ml Sparingly soluble (0.01 g/ml; 10 mg/ml)) of over 10 mg/mL and a solubility ([2]; 0.1% TFA, 0.1 ml Freely soluble (0.1 g/ml), 10 mg in 0.1% TFA) of over 100 mg/mL. It also gave a solubility ([2]; 0.1% TFA, 10 ml Slightly soluble (0.001 g/ml; 1 mg/ml), 10 mg in 0.1% TFA) of over 1 mg/mL, a solubility ([2]; 0.1N HCl, 10 mg in 0.1N HCL, read-out: 0.01 ml Very soluble (1 g/ml)) of under 1000 mg/mL and a solubility ([2]; 0.1N HCl, 10 mg in 0.1N HCL, read-out: 0.5 ml Soluble (0.02 g/ml; 20 mg/ml)) of over 20 mg/mL. For the same molecule, the solubility ([2]; 0.1N HCl, 10 mg in 0.1N HCL, read-out: 1 ml Sparingly soluble (0.01 g/ml; 10 mg/ml)) was over 10 mg/mL, the solubility ([2]; 0.1N HCl, 0.1 ml Freely soluble (0.1 g/ml), 10 mg in 0.1N HCL) was over 100 mg/mL and the solubility ([2]; 0.1N HCl, 10 ml Slightly soluble (0.001 g/ml; 1 mg/ml), 10 mg in 0.1N HCL) was over 1 mg/mL. The solubility ([2]; 0.9N HCl, 10 mg in 0.9N HCL, read-out: 0.01 ml Very soluble (1 g/ml)) was under 1000 mg/mL, the solubility ([2]; 0.9N HCl, 10 mg in 0.9N HCL, read-out: 0.5 ml Soluble (0.02 g/ml; 20 mg/ml)) was under 20 mg/mL and the solubility ([2]; 0.9N HCl, 10 mg in 0.9N HCL, read-out: 1 ml Sparingly soluble (0.01 g/ml; 10 mg/ml)) was under 10 mg/mL. It also gave a solubility ([2]; 0.9N HCl, 0.1 ml Freely soluble (0.1 g/ml), 10 mg in 0.9N HCL) of under 100 mg/mL, a solubility ([2]; 0.9N HCl, 10 ml Slightly soluble (0.001 g/ml; 1 mg/ml), 10 mg in 0.9N HCL) of under 1 mg/mL and a solubility ([2]; 2% propylene glycol in olive oil (or cottonseed oil), 10 mg in 2% Propylene glycol in olive oil (or cottonseed oil), read-out: 0.01 ml Very soluble (1 g/ml)) of under 1000 mg/mL. For the same molecule, the solubility ([2]; 2% propylene glycol in olive oil (or cottonseed oil), 10 mg in 2% Propylene glycol in olive oil (or cottonseed oil), read-out: 0.5 ml Soluble (0.02 g/ml; 20 mg/ml)) was under 20 mg/mL, the solubility ([2]; 2% propylene glycol in olive oil (or cottonseed oil), 10 mg in 2% Propylene glycol in olive oil (or cottonseed oil), read-out: 1 ml Sparingly soluble (0.01 g/ml; 10 mg/ml)) was over 10 mg/mL and the solubility ([2]; 2% propylene glycol in olive oil (or cottonseed oil), 0.1 ml Freely soluble (0.1 g/ml), 10 mg in 2% Propylene glycol in olive oil (or cottonseed oil)) was under 100 mg/mL. The solubility ([2]; 2% propylene glycol in olive oil (or cottonseed oil), 10 ml Slightly soluble (0.001 g/ml; 1 mg/ml), 10 mg in 2% Propylene glycol in olive oil (or cottonseed oil)) was over 1 mg/mL, the solubility ([2]; 10% EtOH (95%) in olive oil (or cottonseed oil), 10 mg in 10% EtOH (95%) in olive oil (or cottonseed oil), read-out: 0.01 ml Very soluble (1 g/ml)) was under 1000 mg/mL and the solubility ([2]; 10% EtOH (95%) in olive oil (or cottonseed oil), 10 mg in 10% EtOH (95%) in olive oil (or cottonseed oil), read-out: 0.5 ml Soluble (0.02 g/ml; 20 mg/ml)) was under 20 mg/mL. It also gave a solubility ([2]; 10% EtOH (95%) in olive oil (or cottonseed oil), 10 mg in 10% EtOH (95%) in olive oil (or cottonseed oil), read-out: 1 ml Sparingly soluble (0.01 g/ml; 10 mg/ml)) of over 10 mg/mL, a solubility ([2]; 10% EtOH (95%) in olive oil (or cottonseed oil), 0.1 ml Freely soluble (0.1 g/ml), 10 mg in 10% EtOH (95%) in olive oil (or cottonseed oil)) of under 100 mg/mL and a solubility ([2]; 10% EtOH (95%) in olive oil (or cottonseed oil), 10 ml Slightly soluble (0.001 g/ml; 1 mg/ml), 10 mg in 10% EtOH (95%) in olive oil (or cottonseed oil)) of over 1 mg/mL. For the same molecule, the solubility ([2]; Acetate saline 100 mM, Mannitol 250 mM, pH 4.3, 10 mg in Acetate saline 100 mM, Mannitol 250 mM (pH 4.3), read-out: 0.01 ml Very soluble (1 g/ml)) was under 1000 mg/mL, the solubility ([2]; Acetate saline 100 mM, Mannitol 250 mM, pH 4.3, 10 mg in Acetate saline 100 mM, Mannitol 250 mM (pH 4.3), read-out: 0.5 ml Soluble (0.02 g/ml; 20 mg/ml)) was under 20 mg/mL and the solubility ([2]; Acetate saline 100 mM, Mannitol 250 mM, pH 4.3, 10 mg in Acetate saline 100 mM, Mannitol 250 mM (pH 4.3), read-out: 1 ml Sparingly soluble (0.01 g/ml; 10 mg/ml)) was under 10 mg/mL. It also gave a solubility ([2]; Acetate saline 100 mM, Mannitol 250 mM, pH 4.3, 0.1 ml Freely soluble (0.1 g/ml), 10 mg in Acetate saline 100 mM, Mannitol 250 mM (pH 4.3)) of under 100 mg/mL, a solubility ([2]; Acetate saline 100 mM, Mannitol 250 mM, pH 4.3, 10 ml Slightly soluble (0.001 g/ml; 1 mg/ml), 10 mg in Acetate saline 100 mM, Mannitol 250 mM (pH 4.3)) of over 1 mg/mL and a solubility ([2]; Acetate saline 100 mM, Mannitol 250 mM, pH 4.3, Acetate saline 100 mM, Mannitol 250 mM (pH 4.3), read-out: Results USP Definition: solubility) of 2 to 3 mg/mL. The solubility ([2]; Acetic acid 1% (glacial), 10 mg in Acetic acid 1% (glacial), read-out: 0.01 ml Very soluble (1 g/ml)) was under 1000 mg/mL, the solubility ([2]; Acetic acid 1% (glacial), 10 mg in Acetic acid 1% (glacial), read-out: 0.5 ml Soluble (0.02 g/ml; 20 mg/ml)) was over 20 mg/mL and the solubility ([2]; Acetic acid 1% (glacial), 10 mg in Acetic acid 1% (glacial), read-out: 1 ml Sparingly soluble (0.01 g/ml; 10 mg/ml)) was over 10 mg/mL. For the same molecule, the solubility ([2]; Acetic acid 1% (glacial), 0.1 ml Freely soluble (0.1 g/ml), 10 mg in Acetic acid 1% (glacial)) was over 100 mg/mL, the solubility ([2]; Acetic acid 1% (glacial), 10 ml Slightly soluble (0.001 g/ml; 1 mg/ml), 10 mg in Acetic acid 1% (glacial)) was over 1 mg/mL and the solubility ([2]; Acetone (USP), 10 mg in Acetone (USP), read-out: 0.01 ml Very soluble (1 g/ml)) was under 1000 mg/mL.
